Data: patent US20230340127A1, “METHODS AND COMPOSITIONS FOR CANCER TREATMENT BY INHIBITION OF FBXO44” (Sanford Burnham Prebys Medical Discovery Institute, priority 2022, published 2023)

Key:
Assay type in all cases: cell-based, human
[1] = tested on: chromatin associated H3K9me3 modifications in MDA-MB-231 cells; test: Immunofluorescence of chromatin associated H3K9me3 after F5446 treatment; conditions: vehicle or F5446 for 48 hrs, IF (FIG. 10E)
Experimental: Immunofluorescence (IF): IF was performed to detect chromatin associated H3K9me3 in siRNA of FBXO44 or control. Briefly, cells were grown on Laminin-coated coverslips (neuVitro no. GG-12-laminin), washed twice with cold PBS, and then fixed with 4% paraformaldehyde for 20 min at 25° C. followed by permeabilization with 0.5% Triton X-100 in PBS for 5 min. Cells were fixed with chilled methanol for 5 min at −20° C. After 3×10 min washes in PBS, cells were incubated in blocking buffer (10 mM Tris-Cl [pH 7.5], 120 mM KCl, 20 mM NaCl, 0.5 mM EDTA, 0.1% Triton X-100, 10% milk, 2% BSA) overnight at 4° C. The relevant primary antibodies diluted in blocking buffer were then added. Specifically, 1:500 dilution for anti-H3K9me3 (Abcam no. ab8898). Cells were washed 3×10 min with KCMT buffer (10 mM Tris-Cl [pH 7.5], 120 mM KCl, 20 mM NaCl, 0.5 mM EDTA, 0.1% Triton X-100) and incubated with Alexa Fluor 488-labeled anti-rabbit (Thermo Fisher Scientific no. A-21441) or Alexa Fluor 594-labeled anti-mouse (Cell Signaling Technologies no. 8890) antibodies at 1:500 dilution for 1 hr at 25° C. After 3×10 min washes with KCMT buffer, cells were stained with DAPI (Thermo Fisher Scientific no. D1306), coverslips mounted with anti-fade mounting medium (Vector Laboratories no. H-1000), and slides examined by fluorescence microscopy (Nikon Inverted TE300) or confocal microscopy (Zeiss LSM 710 NLO). […]

[2] = tested on: cancer cell lines and patient-derived glioblastoma cultures; test: Viability of cancer cells after F5446 treatment; conditions: F5446 for 48 hrs (FIG. 9G)
Experimental: Cell lines and culture conditions: all cancer cell lines were purchased from the American Tissue Culture Collection (ATCC) and grown in recommended culture media. Specifically, MDA-MB-231, BT-549, MCF7, A549, and H446 cells were cultured in RPMI 1640 (Corning), HEK293T, HEK293FT, and HeLa cells were cultured in DMEM (Corning), MDA-MB-231-luc cells were cultured in MEM (Corning), U2OS and HCT116 cells were cultured in McCoy's 5A (Corning). The above media were supplemented with 10% fetal bovine serum (FBS), 2 mM glutamine, and 100 U/mL penicillin and streptomycin. Patient-derived glioma stem cells (GSCs) were obtained (Xie et al., 2018) and cultured in Neurobasal medium (Thermo Fisher Scientific, #11360070) supplemented with B27 without vitamin A (Thermo Fisher Scientific, #A3353501), EGF, and bFGF (20 ng/mL each; R&D Systems), sodium pyruvate (Thermo Fisher Scientific, #11360070), and GlutaMAX (Thermo Fisher Scientific, #35050061). All cells were incubated at 37° C. in 5% CO2. The cell cultures were authenticated by short tandem repeat (STR) analysis.
To assess whether this epigenetic regulatory pathway could potentially be targeted for cancer treatment, SUV39H1 and its chemical inhibitor F5446 were used to perform experiments. IF, qRT-PCR, and growth curve experiments were performed as described in previous examples. […]

[3] = tested on: HMECs and primary astrocytes; test: Viability of normal cells after F5446 treatment; conditions: F5446 for 48 hrs (FIG. 9G)
Experimental: To assess whether this epigenetic regulatory pathway could potentially be targeted for cancer treatment, SUV39H1 and its chemical inhibitor F5446 were used to perform experiments. IF, qRT-PCR, and growth curve experiments were performed as described in previous examples. Human mammary epithelial cells (HMECs) and primary astrocytes were also used in the experiments. HMECs (Lonza, #CC-2551) were cultured in MEGM BulletKit Medium (Lonza, #CC-3150). Primary astrocytes were cultured Astrocyte Medium (ScienCell, #1801) and cells were incubated at 37° C. in 5% CO2. All cells were incubated at 37° C. in 5% CO2. The cell cultures were authenticated by short tandem repeat (STR) analysis.
To establish the potential of a therapeutic index for FBXO44/SUV39H1, the role of FBXO44/SUV39H1 in RE silencing in normal cells was investigated using human mammary epithelial cells (HMECs) or primary astrocytes. HMECs and primary astrocytes were cultured and treated with F5446 as described in example 17. Growth curve, immunoblotting, IF, ChIP experiments were performed as described in previous examples.

COC(=O)c1cc2c(n1S(=O)(=O)c1ccc(Cl)cc1)C(=O)C(=O)c1[nH]cc(C(=O)OCc3ccccc3)c1-2 [F5446]
chromatin-associated H3K9me3 [1]: reduced | survival of cancer cell lines and patient-derived glioblastoma cultures [2]: reduced | HMEC and astrocyte viability [3]: minimally affected
